# The source made the active and inactive calls. The calls are words filed in the database; no cut-off is given here.
# Tests used:
# Mus musculus [1] = assay: Inhibition of MSU crystal induced peritonitis in BALB/c mouse assessed as reduction in neutrophil recruitment at 50 to 100 mg/kg, ip pretreated with LPS for 3 hrs followed by compound addition prior to MSU stimulation for 6 hrs by ELISA; type: functional, organism-based; conditions: dose 50-100 mg/kg
# NRK-49F = assay: Cytotoxicity against rat NRK-49F cells at 5 to 20 uM incubated for 72 hrs by MTT assay; type: toxicity, cell-based; conditions: dose 5-20 µM
# [2] = molecular target: NLR family CARD domain-containing protein 4 (Mus musculus) (UniProt Q3UP24); assay: Inhibition of flagellin stimulated NLRC4 inflammasome activation in mouse BMDMs assessed as reduction in IL-1beta secretion pretreated with LPS for 3 hrs followed by compound addition for 40 mins prior to flagellin stimulation for 6 hrs by Western blotting analysis; type: cell-based; conditions: BMDM, time 400.0 min
# Sequence of NLR family CARD domain-containing protein 4 (Mus musculus) (Q3UP24 whole entry, the tested form may be a part): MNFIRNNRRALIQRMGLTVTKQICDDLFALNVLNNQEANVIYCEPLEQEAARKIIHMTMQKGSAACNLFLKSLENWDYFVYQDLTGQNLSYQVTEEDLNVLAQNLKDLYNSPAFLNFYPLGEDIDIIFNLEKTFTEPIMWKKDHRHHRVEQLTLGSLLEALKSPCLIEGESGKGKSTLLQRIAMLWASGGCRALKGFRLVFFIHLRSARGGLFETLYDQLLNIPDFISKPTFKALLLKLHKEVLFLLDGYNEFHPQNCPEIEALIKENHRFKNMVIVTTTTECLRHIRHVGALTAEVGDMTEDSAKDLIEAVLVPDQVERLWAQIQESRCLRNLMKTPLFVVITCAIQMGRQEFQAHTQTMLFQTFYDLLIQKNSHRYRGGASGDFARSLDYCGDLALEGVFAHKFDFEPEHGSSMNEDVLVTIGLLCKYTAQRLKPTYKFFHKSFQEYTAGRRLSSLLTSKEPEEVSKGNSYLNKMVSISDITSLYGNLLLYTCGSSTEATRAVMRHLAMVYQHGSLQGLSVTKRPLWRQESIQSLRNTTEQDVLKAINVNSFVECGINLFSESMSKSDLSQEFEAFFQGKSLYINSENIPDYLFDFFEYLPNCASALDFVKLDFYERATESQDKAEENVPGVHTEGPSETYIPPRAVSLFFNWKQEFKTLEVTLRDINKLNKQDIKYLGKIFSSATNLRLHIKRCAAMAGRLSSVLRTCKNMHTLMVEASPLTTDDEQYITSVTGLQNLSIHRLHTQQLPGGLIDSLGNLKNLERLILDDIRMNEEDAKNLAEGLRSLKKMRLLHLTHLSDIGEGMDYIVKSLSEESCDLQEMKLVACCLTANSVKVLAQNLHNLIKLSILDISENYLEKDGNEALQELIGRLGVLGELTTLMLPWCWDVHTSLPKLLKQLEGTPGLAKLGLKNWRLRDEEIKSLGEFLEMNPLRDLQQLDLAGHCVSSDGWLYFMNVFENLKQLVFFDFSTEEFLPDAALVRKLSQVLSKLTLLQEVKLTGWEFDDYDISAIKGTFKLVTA
# HepG2 = assay: Cytotoxicity against human HepG2 cells at 5 to 20 uM incubated for 72 hrs by MTT assay; type: toxicity, cell-based; conditions: hepg2, 72 h, dose 5-20 µM
# Cytochrome P450 2C9 = Cytochrome P450 2C9 (Homo sapiens, UniProt P11712); assay: Inhibition of human CYP2C9 upto 10 uM relative to control; type: ADME
# Sequence of Cytochrome P450 2C9 (P11712 whole entry): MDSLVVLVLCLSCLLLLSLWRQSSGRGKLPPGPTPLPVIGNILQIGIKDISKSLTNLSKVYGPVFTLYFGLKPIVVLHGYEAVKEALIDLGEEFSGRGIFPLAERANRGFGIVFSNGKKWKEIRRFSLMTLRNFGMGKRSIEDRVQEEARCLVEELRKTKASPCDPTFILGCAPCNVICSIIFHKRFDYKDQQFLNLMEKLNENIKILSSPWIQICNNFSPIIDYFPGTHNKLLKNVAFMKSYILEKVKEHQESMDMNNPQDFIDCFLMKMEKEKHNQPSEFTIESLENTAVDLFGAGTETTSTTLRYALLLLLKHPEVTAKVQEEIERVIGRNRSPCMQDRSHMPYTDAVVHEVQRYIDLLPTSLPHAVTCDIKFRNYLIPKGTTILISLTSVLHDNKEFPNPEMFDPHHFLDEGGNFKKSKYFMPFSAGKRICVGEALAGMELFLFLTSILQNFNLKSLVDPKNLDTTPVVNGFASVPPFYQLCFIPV
# Mus musculus [3] = assay: Antiinflammatory activity against LPS induced septic shock in BALB/c mouse assessed as increase in survival rate at 25 mg/kg, ip pretreated for 1 hr followed by LPS stimulation and measured after 72 hrs; type: functional; conditions: time 73 hrs
# [4] = molecular target: NACHT, LRR and PYD domains-containing protein 3 (Mus musculus) (UniProt Q8R4B8); assay: Inhibition of NLRP3 inflammasome activation in LPS/nigericin stimulated mouse BMDMs assessed as effect on ASC expression pretreated with LPS for 3 hrs followed by compound addition for 40 mins prior to nigericin stimulation for 40 mins by Western blotting analysis; type: cell-based; conditions: BMDM, time 80.0 min
# Sequence of NACHT, LRR and PYD domains-containing protein 3 (Mus musculus) (Q8R4B8 whole entry, the tested form may be a part): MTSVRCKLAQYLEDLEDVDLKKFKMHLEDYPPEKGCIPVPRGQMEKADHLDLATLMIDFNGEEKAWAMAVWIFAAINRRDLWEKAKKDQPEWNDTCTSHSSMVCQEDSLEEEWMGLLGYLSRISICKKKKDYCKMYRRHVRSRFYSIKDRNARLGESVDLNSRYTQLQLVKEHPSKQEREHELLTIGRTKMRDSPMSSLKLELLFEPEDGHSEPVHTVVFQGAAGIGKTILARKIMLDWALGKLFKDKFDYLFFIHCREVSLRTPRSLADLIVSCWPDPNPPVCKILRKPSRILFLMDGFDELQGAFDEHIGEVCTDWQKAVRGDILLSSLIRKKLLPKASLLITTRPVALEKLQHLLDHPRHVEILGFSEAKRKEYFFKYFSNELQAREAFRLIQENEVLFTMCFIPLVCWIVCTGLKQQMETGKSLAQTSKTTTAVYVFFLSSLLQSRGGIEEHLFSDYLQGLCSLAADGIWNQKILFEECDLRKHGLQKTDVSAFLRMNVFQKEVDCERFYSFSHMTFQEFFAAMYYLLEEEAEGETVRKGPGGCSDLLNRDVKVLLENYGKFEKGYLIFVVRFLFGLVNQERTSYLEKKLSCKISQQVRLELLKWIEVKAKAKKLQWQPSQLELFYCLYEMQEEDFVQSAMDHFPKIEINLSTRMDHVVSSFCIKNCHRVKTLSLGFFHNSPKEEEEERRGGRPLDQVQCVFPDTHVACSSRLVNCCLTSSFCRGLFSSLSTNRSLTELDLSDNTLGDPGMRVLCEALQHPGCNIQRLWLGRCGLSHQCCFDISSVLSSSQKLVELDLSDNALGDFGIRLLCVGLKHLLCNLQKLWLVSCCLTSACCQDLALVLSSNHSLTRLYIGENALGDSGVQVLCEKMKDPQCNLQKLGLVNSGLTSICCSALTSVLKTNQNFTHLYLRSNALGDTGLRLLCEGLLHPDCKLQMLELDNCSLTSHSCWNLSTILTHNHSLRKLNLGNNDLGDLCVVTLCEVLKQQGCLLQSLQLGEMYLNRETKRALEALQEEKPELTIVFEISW
# [5] = molecular target: NACHT, LRR and PYD domains-containing protein 3 (Mus musculus) (UniProt Q8R4B8); assay: Inhibition of NLRP3 inflammasome activation in LPS/nigericin stimulated mouse BMDMs assessed as reduction in caspase-1 release pretreated with LPS for 3 hrs followed by compound addition for 40 mins prior to nigericin stimulation for 40 mins by Western blotting analysis; type: cell-based; conditions: BMDM, time 80.0 min
# [6] = AUC(0 to t) in BALB/c mouse at 5 mg/kg, iv measured upto 24 hrs by LC-MS/MS analysis; type: ADME, organism-based; conditions: in vivo
# THP-1 [7] = assay: Inhibition of nigericin induced ASC specks formation in PMA differentiated human THP-1 cells at 5 to 80 nM pretreated with LPS for 3 hrs followed by compound addition for 40 mins prior to nigericin stimulation for 40 mins by Western blotting analysis; type: functional, cell-based; conditions: dose 5-80 nM, time 80.0 min
# [8] = Half-life in BALB/c mouse at 5 mg/kg, iv measured upto 24 hrs by LC-MS/MS analysis; type: ADME, organism-based; conditions: in vivo
# [9] = molecular target: NACHT, LRR and PYD domains-containing protein 3 (Mus musculus) (UniProt Q8R4B8); assay: Inhibition of NLRP3 inflammasome activation in mouse BMDMs assessed as effect on TNF-alpha production at 2 to 31.25 nM pretreated with compound for 40 mins followed by LPS/ATP stimulation; type: cell-based; conditions: BMDM, dose 2-31.25 nM
# [10] = Inhibition of IL-1beta release in PMA-differentiated/ LPS and nigericin stimulated human THP-1 cells at 0.1 uM pretreated with LPS for 3 hrs followed by incubation with compound for 40 mins and later stimulated with nigericin for 40 mins by ELISA; type: functional; conditions: THP-1, 1.333 h, time 80 min
# [11] = Tmax in BALB/c mouse at 5 mg/kg, iv measured upto 24 hrs by LC-MS/MS analysis; type: ADME, organism-based; conditions: in vivo
# THP-1 [12] = assay: Inhibition of nigericin induced ASC oligomerization in PMA differentiated human THP-1 cells at 5 to 80 nM pretreated with LPS for 3 hrs followed by compound addition for 40 mins prior to nigericin stimulation for 40 mins by gel electrophoresis analysis; type: functional, cell-based; conditions: dose 5-80 nM, time 80.0 min
# Cytochrome P450 2D6 = Cytochrome P450 2D6 (Homo sapiens, UniProt P10635); assay: Inhibition of human CYP2D6 at 10 uM relative to control; type: ADME
# Sequence of Cytochrome P450 2D6 (P10635 whole entry): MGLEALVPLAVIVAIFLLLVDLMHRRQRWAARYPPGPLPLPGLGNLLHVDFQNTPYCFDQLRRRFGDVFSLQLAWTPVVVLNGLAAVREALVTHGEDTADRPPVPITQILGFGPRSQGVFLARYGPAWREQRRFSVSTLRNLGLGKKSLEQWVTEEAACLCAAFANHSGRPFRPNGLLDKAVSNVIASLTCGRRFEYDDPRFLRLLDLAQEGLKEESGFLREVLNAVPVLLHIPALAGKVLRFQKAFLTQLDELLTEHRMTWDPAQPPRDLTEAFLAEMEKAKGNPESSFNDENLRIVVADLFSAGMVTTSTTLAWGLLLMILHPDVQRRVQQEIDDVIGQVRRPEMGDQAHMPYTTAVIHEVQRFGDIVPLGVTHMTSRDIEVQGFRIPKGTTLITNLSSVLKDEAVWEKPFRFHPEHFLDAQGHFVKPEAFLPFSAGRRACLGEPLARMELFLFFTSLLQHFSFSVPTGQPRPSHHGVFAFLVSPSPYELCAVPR
# THP-1 [13] = assay: Inhibition of nigericin induced ASC oligomerization in PMA differentiated human THP-1 cells at 5 to 80 nM pretreated compound for 40 mins followed by nigericin stimulation by immunofluorescence analysis; type: functional, cell-based; conditions: dose 5-80 nM
# [14] = molecular target: NACHT, LRR and PYD domains-containing protein 3 (Mus musculus) (UniProt Q8R4B8); assay: Inhibition of NLRP3 inflammasome activation in mouse BMDMs assessed as effect on TNF-alpha production at 2 to 31.25 nM pretreated with compound for 40 mins followed by LPS/ nigericin stimulation; type: cell-based; conditions: BMDM, dose 2-31.25 nM
# [15] = molecular target: NACHT, LRR and PYD domains-containing protein 3 (Mus musculus) (UniProt Q8R4B8); assay: Inhibition of NLRP3 inflammasome activation in mouse BMDMs assessed as effect on NLRP3 expression at 2 to 31.25 nM pretreated with compound for 40 mins followed by LPS/nigericin stimulation; type: cell-based; conditions: BMDM, dose 2-31.25 nM
# [16] = Half-life in BALB/c mouse at 5 mg/kg, po measured upto 24 hrs by LC-MS/MS analysis; type: ADME, organism-based; conditions: in vivo
# hERG (KCNH2) = hERG (KCNH2) (Homo sapiens, UniProt Q12809); assay: Inhibition of human ERG at 20 uM relative to control
# Sequence of hERG (KCNH2) (Q12809 whole entry): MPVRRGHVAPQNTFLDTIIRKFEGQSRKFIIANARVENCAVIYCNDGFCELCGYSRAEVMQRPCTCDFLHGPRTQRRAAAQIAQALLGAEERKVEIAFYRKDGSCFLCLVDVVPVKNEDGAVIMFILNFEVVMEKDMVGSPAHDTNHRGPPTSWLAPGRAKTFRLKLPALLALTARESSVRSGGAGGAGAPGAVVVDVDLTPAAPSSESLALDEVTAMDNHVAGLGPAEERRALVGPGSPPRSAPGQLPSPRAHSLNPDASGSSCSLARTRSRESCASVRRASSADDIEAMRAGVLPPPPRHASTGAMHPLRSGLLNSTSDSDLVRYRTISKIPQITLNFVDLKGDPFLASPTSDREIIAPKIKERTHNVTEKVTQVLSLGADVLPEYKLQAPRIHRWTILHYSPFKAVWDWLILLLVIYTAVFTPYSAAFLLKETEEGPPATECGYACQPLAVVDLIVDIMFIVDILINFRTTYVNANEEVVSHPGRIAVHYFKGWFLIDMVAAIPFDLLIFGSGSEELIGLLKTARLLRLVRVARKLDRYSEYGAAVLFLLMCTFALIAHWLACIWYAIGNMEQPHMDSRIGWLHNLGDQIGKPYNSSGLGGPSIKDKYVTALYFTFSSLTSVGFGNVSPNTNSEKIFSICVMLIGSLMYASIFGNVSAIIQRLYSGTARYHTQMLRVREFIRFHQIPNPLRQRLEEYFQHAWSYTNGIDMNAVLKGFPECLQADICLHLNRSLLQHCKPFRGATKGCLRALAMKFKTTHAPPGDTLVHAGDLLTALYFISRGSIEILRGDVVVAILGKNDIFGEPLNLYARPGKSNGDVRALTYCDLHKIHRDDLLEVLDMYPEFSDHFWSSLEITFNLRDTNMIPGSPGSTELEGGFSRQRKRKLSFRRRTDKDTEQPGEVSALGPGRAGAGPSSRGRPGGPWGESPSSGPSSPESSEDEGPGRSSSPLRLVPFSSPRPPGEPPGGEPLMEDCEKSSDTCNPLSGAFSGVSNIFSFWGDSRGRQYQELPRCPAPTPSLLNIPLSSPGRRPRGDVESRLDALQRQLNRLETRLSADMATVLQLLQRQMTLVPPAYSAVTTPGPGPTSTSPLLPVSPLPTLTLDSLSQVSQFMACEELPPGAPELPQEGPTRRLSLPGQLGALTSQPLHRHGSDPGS
# Cytochrome P450 1A2 = molecular target: T1, Cytochrome P450 1A2 (Homo sapiens, UniProt P05177); assay: Inhibition of human CYP1A2 upto 10 uM relative to control; type: ADME
# T1 sequence (P05177 whole entry): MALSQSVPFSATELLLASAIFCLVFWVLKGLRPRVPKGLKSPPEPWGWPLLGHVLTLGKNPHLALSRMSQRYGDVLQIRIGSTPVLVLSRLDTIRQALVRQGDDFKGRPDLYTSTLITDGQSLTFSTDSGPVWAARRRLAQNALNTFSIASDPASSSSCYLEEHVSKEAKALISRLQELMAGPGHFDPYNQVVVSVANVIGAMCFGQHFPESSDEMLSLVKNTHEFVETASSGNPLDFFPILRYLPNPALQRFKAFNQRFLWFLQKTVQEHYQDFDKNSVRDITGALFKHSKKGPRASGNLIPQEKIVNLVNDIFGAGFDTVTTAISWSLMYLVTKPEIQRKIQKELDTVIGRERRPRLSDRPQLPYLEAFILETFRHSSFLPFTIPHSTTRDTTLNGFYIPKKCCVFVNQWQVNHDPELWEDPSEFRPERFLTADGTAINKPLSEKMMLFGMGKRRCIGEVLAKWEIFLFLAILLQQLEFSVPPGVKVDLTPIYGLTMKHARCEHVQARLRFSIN
# [17] = MRT(0 to t) in BALB/c mouse at 5 mg/kg, iv measured upto 24 hrs by LC-MS/MS analysis; type: ADME, organism-based; conditions: in vivo
# [18] = Cmax in BALB/c mouse at 5 mg/kg, iv measured upto 24 hrs by LC-MS/MS analysis; type: ADME, organism-based; conditions: in vivo
# [19] = AUC(0 to t) in BALB/c mouse at 5 mg/kg, po measured upto 24 hrs by LC-MS/MS analysis; type: ADME, organism-based; conditions: in vivo
# [20] = molecular target: NACHT, LRR and PYD domains-containing protein 3 (Mus musculus) (UniProt Q8R4B8); assay: Inhibition of NLRP3 inflammasome activation in LPS stimulated mouse BMDMs assessed as reduction in IL-1beta release at 2 to 31.25 nM pretreated with LPS for 3 hrs followed by compound addition for 40 mins prior to MSU stimulation for 6 hrs by ELISA; type: cell-based; conditions: BMDM, dose 2-31.25 nM, time 400.0 min
# Mus musculus [21] = assay: Inhibition of MSU crystal induced peritonitis in BALB/c mouse assessed as reduction in serum IL-1beta level at 50 to 100 mg/kg, ip pretreated with LPS for 3 hrs followed by compound addition prior to MSU stimulation for 6 hrs by ELISA; type: functional, organism-based; conditions: dose 50-100 mg/kg
smiles,measurement,setting,value
OCCN1CCC[C@@H](Nc2nnc(-c3ccc4occc4c3O)c3c2C2CCC3CC2)C1,inhibition,Mus musculus [1],Active
same,Activity,NRK-49F,Non-Toxic
same,inhibition,[2],inactive
same,Activity,HepG2,Non-Toxic
same,inhibition (INH),Cytochrome P450 2C9,Not Active
same,Activity,Mus musculus [3],82%
same,inhibition,[4],inactive
same,inhibition,[5],Dose-Dependent Effect
same,AUC(0-t) at 24 h,[6],9.52 µg·h/mL
same,inhibition,THP-1 [7],Active
same,half-life,[8],3.51 h
same,inhibition,[9],inactive
same,inhibition at 0.1 µM,[10],98.9%
same,Tmax,[11],4.98 min
same,inhibition,THP-1 [12],Active
same,inhibition (INH),Cytochrome P450 2D6,Active
same,inhibition,THP-1 [13],Active
same,inhibition,[14],inactive
same,inhibition,[15],inactive
same,half-life,[16],4.74 h
same,inhibition at 20 µM,hERG (KCNH2),49.1%
same,inhibition (INH),Cytochrome P450 1A2,Not Active
same,MRT last at 24 h,[17],4.1 h
same,Cmax,[18],3.77 µg/mL
same,AUC(0-t) at 24 h,[19],5.94 µg·h/mL
same,inhibition,[20],Active
same,inhibition,Mus musculus [21],Active

# Reference: ChEMBL document CHEMBL5584341, “Discovery of Potent, Specific, and Orally Available NLRP3 Inflammasome Inhibitors Based on Pyridazine Scaffolds for the Treatment of Septic Shock and Peritonitis” (J Med Chem, 2024)
